Reference: patent publication US20260356856A1, “KRAS G12S AND G12C INHIBITORS” (MIRATI THERAPEUTICS, INC., priority 2023, published 2026)

Experiments:
KRas WT = target: T1, KRas WT (Homo sapiens, UniProt P01116); assay: KRas binding assay, TR-FRET displacement of Cy5 labelled tracer; details: 60-minute incubation at room temperature, 1% DMSO, pH 7.5
T1 construct: Biotinylated KRas (corresponding to amino acids 1-169, produced at Accelegan Inc.); biotin (biotinylated); purchased Accelegan Inc
In short: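 Biotinylated KRas (residues 1-169) was incubated with tracer, terbium-streptavidin and compound at 1% DMSO final in 50 mM HEPES pH 7.5 containing 5 mM MgCl2, 0.005% Tween-20 and 1 mM DTT. The plate was read after 60 min at room temperature, and percent-of-control data were fit to a 4-parameter IC50 equation.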

KRas G12C = target: T2, KRas G12C (Homo sapiens, UniProt P01116, G12C); assay: as above; details: 60-minute incubation at room temperature, 1% DMSO, pH 7.5
T2 construct: Biotinylated KRas (corresponding to amino acids 1-169, produced at Accelegan Inc.); biotin (biotinylated); purchased Accelegan Inc
In short: (§1)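 Room-temperature incubation (60 min) of compound with biotinylated KRas 1-169, tracer and Tb-streptavidin preceded the TR-FRET read. Final DMSO was 1%; buffer pH 7.5. Percent-of-control values went into a 4-parameter equation to give IC50.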

KRas G12S = target: T3, KRas G12S (Homo sapiens, UniProt P01116, G12S); assay: as above; details: 60-minute incubation at room temperature, 1% DMSO, pH 7.5
T3 construct: Biotinylated KRas (corresponding to amino acids 1-169, produced at Accelegan Inc.); biotin (biotinylated); purchased Accelegan Inc
In short: as §1

[1] = target: T4, KRas-mediated phosphorylation of ERK in MKN1 cells (Homo sapiens, UniProt P01116); assay: Inhibition of KRas-mediated phosphorylation of ERK (HTRF), MKN1 cells; format: cell-based; details: MKN1 cells (KRas WT); HTRF pERK; 3 h incubation
T4 construct: pERK HTRF read-out
Experimental: Inhibition of KRas Phosphorylation of ERK (HTRF) by Exemplary Compounds of Formula (Ia) or (Ib)
Cisbio HTRF Advanced pERK Assay Catalog #64AERPEH • Cells: MKN1, PSN1 • Procedure: • 1. Day 1: Seed 6,000 cells/well −25 μl/well in 384-well white solid bottom plate; RPM1_10% FBS. Incubate overnight at 37 °C/5% CO2. • 2.

[2] = target: T5, KRas-mediated phosphorylation of ERK in A549 cells (Homo sapiens, UniProt P01116, G12S); assay: Inhibition of KRas-mediated phosphorylation of ERK (HTRF), A549 cells; format: cell-based; details: HTRF pERK, 3 h incubation
T5 construct: pERK HTRF read-out
T5 sequence (P01116 1-188 isoform P01116-2 G12S): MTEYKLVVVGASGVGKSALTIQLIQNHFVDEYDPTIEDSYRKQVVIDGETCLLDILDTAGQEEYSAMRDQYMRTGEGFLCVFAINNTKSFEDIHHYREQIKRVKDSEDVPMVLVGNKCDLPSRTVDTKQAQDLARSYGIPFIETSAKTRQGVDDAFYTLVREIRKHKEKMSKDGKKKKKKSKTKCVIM

T2 sequence (P01116 1-169 isoform P01116-2 G12C): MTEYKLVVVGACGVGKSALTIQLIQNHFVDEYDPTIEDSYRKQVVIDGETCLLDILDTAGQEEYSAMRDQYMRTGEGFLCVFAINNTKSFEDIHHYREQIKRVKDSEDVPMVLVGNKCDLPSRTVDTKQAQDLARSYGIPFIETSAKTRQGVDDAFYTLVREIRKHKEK
T3 sequence (P01116 1-169 isoform P01116-2 G12S): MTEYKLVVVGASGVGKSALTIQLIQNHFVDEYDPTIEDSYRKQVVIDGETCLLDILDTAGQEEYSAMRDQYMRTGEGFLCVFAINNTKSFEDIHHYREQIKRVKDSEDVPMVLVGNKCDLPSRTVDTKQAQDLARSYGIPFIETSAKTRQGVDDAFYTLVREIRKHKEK
T4 sequence (P01116 1-188 isoform P01116-2): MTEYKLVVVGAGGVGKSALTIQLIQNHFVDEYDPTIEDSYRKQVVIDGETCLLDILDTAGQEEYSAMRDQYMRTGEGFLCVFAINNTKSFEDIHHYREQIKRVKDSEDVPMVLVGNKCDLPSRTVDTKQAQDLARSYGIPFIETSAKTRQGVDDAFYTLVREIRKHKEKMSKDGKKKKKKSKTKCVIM
T1 sequence (P01116 1-169 isoform P01116-2): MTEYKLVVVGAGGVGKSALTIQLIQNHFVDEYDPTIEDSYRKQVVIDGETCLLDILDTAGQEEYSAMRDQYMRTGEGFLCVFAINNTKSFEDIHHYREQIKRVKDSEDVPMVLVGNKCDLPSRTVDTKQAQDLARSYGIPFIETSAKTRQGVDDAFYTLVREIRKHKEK

Row | IC50 (KRas WT) [nM] | IC50 (KRas G12C) [nM] | IC50 (KRas G12S) [nM] | IC50 [1] [nM] | IC50 [2] [nM] | Structure (SMILES)
1 | 6 | 18 | 12 | 65 | 250 | Cc1ccn(C(=O)[C@H]2CCN(c3nc(OC[C@@]45CCCN4C[C@H](F)C5)nc4c(F)c(-c5ccc(F)c6sc(N)c(C#N)c56)c(Cl)cc34)C[C@H]2C)n1 [Example 185, 2-amino-4-(6-chloro-8-fluoro-2-(((2R,7aS)-2-fluorotetrahydro-1H-pyrrolizin-7a(5H)-yl)methoxy)-4-((cis)-3-methyl-4-(3-methyl-1H-pyrazole-1-carbonyl)piperidin-1-yl)quinazolin-7-yl)-7-fluorobenzo[b]thiophene-3-carbonitrile]
2 | 23 | 16 | 17 | 13 | 249 | Cc1ccn(C(=O)C2CCCCN(c3nc(OC[C@@]45CCCN4C[C@H](F)C5)nc4c(F)c(-c5ccc(F)c6sc(N)c(C#N)c56)c(Cl)cc34)C2)n1 (stereo partly drawn) [Example 136, 2-amino-4-(6-chloro-8-fluoro-2-(((2R,7aS)-2-fluorotetrahydro-1H-pyrrolizin-7a(5H)-yl)methoxy)-4-(3-(3-methyl-1H-pyrazole-1-carbonyl)azepan-1-yl)quinazolin-7-yl)-7-fluorobenzo[b]thiophene-3-carbonitrile]

Further lines, the molecule ahead of its results:

Row | Structure (SMILES) | IC50 (KRas WT) [nM] | IC50 (KRas G12C) [nM] | IC50 (KRas G12S) [nM] | IC50 [1] [nM] | IC50 [2] [nM]
3 | CCc1c(F)ccc2cc(O)cc(-c3ncc4c(NC[C@@H]5[C@H](C(=O)n6ccc(C)n6)C5(C)C)nc(OC[C@@]56CCCN5C[C@H](F)C6)nc4c3F)c12 [Example 109, ((1S,3R)-3-(((7-(8-ethyl-7-fluoro-3-hydroxynaphthalen-1-yl)-8-fluoro-2-(((2R,7aS)-2-fluorotetrahydro-1H-pyrrolizin-7a(5H)-yl)methoxy)pyrido[4,3-d]pyrimidin-4-yl)amino)methyl)-2,2-dimethylcyclopropyl)(3-methyl-1H-pyrazol-1-yl)methanone] | 73 | 134 | 99 | 316 | 1920
4 | C=CC1(C(=O)n2ccc(C)n2)CCN(c2nc(OC[C@@]34CCCN3C[C@H](F)C4)nc3c(F)c(-c4cc(O)cc5ccc(F)c(CC)c45)ncc23)CC1 [Example 102, (1-(7-(8-ethyl-7-fluoro-3-hydroxynaphthalen-1-yl)-8-fluoro-2-(((2R,7aS)-2-fluorotetrahydro-1H-pyrrolizin-7a(5H)-yl)methoxy)pyrido[4,3-d]pyrimidin-4-yl)-4-vinylpiperidin-4-yl)(3-methyl-1H-pyrazol-1-yl)methanone] | 5920 | 252 | 2140 | > 10000 | 1930
5 | CCc1c(F)ccc2cc(O)cc(-c3ncc4c(N5C[C@@H]6[C@H](C5)[C@H]6C(=O)n5ccc(C)n5)nc(OC[C@@]56CCCN5C[C@H](F)C6)nc4c3F)c12 [Example 118, ((1R,5S,6S)-3-(7-(8-ethyl-7-fluoro-3-hydroxynaphthalen-1-yl)-8-fluoro-2-(((2R,7aS)-2-fluorotetrahydro-1H-pyrrolizin-7a(5H)-yl)methoxy)pyrido[4,3-d]pyrimidin-4-yl)-3-azabicyclo[3.1.0]hexan-6-yl)(3-methyl-1H-pyrazol-1-yl)methanone] | 873 | 591 | 437 | 5750 | 7840
6 | CCc1c(F)ccc2cc(O)cc(-c3ncc4c(N5C[C@@H](C)N(C(=O)n6ccc(C)n6)[C@H](C)C5)nc(OC[C@@]56CCCN5C[C@H](F)C6)nc4c3F)c12 [Example 86, ((2R,6R)-4-(7-(8-ethyl-7-fluoro-3-hydroxynaphthalen-1-yl)-8-fluoro-2-(((2R,7aS)-2-fluorotetrahydro-1H-pyrrolizin-7a(5H)-yl)methoxy)pyrido[4,3-d]pyrimidin-4-yl)-2,6-dimethylpiperazin-1-yl)(3-methyl-1H-pyrazol-1-yl)methanone] | 2320 | 3450 | 2200 | 4230 | 8960
